Data on 32 compounds can be found in US10836770B2, “Imidazopyridazine compounds useful as modulators of IL-12, IL-23 and/or INF alpha responses” (priority 2016, dated 2020).

Read-outs that look alike come from different tables or passages of the source.

Assay [1] deals with IL-23-stimulated Kit225 T cells with STAT-dependent luciferase reporter. Kind of assay: Kit225 T cell assay, IL-23 stimulated STAT-dependent luciferase reporter. It is filed as cell-based, human. As to the method: (§1) Kit225 T cells with a stably-integrated STAT-dependent luciferase reporter were plated in RPMI (GIBCO) containing 10% heat-inactivated FBS (GIBCO) and 100 U/mL PenStrep (GIBCO). The cells were then stimulated with either 20 ng/mL human recombinant IL-23 or 200 U/mL human recombinant IFNα (PBL InterferonSource) for 5-6 hours. Luciferase expression was measured using the STEADY-GLO® Luciferase Assay System (PROMEGA®) according to the manufacturer's instructions.

Assay [2] relates to IFNα-stimulated Kit225 T cells with STAT-dependent luciferase reporter. Kind of assay: Kit225 T cell assay, IFNα stimulated STAT-dependent luciferase reporter. It is filed as cell-based, human. As to the method:
as §1
For orientation: In a reporter assay the amount or activity of a reporter protein is the signal.

Assay [3] has as its target T1, recombinantly expressed His-tagged protein corresponding to amino acids 575-869 of human Tyk2 (Homo sapiens, UniProt P29597).
T1 construct: made in house
Kind of assay: Probe displacement assay (scintillation proximity, radiolabeled probe). It is filed as binding. As to the method:
The probe displacement assay is conducted as follows: In a […], test compounds along with recombinantly expressed His-tagged protein corresponding to amino acids 575-869 of human Tyk2 (sequence shown below) at 2.5 nM, 40 nM ((R)—N-(1-(3-(8-methyl-5-(methylamino)-8H-imidazo[4,5-d]thiazolo[5,4-b]pyridin-2-yl)phenyl)ethyl)-2-([^3H]methylsulfonyl)benzamide) (preparation described below) and 80 μg/mL Copper His-Tag scintillation proximity assay beads (Perkin Elmer, Catalog #RPNQ0095) in 50 mM HEPES, pH 7.5, containing 100 μg/mL bovine serum albumin and 5% DMSO were incubated for 30 minutes at room temperature. […] The IC50 value is defined as the concentration of test compound required to inhibit radiolabeled probe binding by 50%.
Protein Sequence of recombinant Hig-tagged Tyk2 (575-869):
The preparation of radiolabeled probe, (R)—N-(1-(3-(8-methyl-5-(methylamino)-8H-imidazo[4,5-d]thiazolo[5,4-b]pyridin-2-yl)phenyl)ethyl)-2-([^3H]methylsulfonyl)benzamide, was performed as described below: […]

Setting [4] is: Homo sapiens, KIT225, read-out: IL-23 Kit225 Reporter, LE (IC50, uM).
Where [5] appears, read: Homo sapiens, KIT225, read-out: IFNa Kit225 Reporter, LE (IC50, uM).

T1 sequence (P29597 with tags, fused parts or gaps): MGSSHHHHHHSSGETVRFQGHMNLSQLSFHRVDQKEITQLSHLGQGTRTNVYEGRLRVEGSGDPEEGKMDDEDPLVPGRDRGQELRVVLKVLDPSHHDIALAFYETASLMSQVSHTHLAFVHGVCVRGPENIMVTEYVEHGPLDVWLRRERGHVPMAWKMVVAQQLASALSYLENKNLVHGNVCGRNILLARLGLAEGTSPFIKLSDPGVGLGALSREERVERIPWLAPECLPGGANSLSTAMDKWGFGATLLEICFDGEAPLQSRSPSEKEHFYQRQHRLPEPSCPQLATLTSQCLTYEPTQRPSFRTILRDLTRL

In general, IC50 refers to the concentration that inhibits the measured activity by half. Usually EC50 stands for the midpoint of the concentration-response curve. As for `CNc1cc(Nc2cn(C)nc2C(=O)Nc2cccc(C)c2)nn2c(C(=O)NC3CC3)cnc12` [Example 22], the IC50 in assay [1] (setting [4]) is 0.27 µM; in assay [2] (setting [5]), 0.35 µM. In addition, the concentration giving a half-maximal response (EC50) in assay [3] was 20 nM.
For `CNc1cc(Nc2cn(C)nc2C(=O)Nc2ccc(OC)nc2)nn2c(C(=O)NC3CC3)cnc12` [Example 11], in that order: 0.52 µM, 0.48 µM and 20 nM.
In the case of `CCNC(=O)c1ncsc1Nc1cc(NC)c2ncc(C(=O)NC3CC3)n2n1` [Example 79], the values for the IC50 in assay [1] (setting [4]) and in assay [2] (setting [5]) were 0.32 µM and 0.15 µM, respectively. Also, in assay [3], the EC50 was 20 nM.
For `CNc1cc(Nc2scnc2C(=O)NC(C)C)nn2c(C(=O)NC3CC3)cnc12` [Example 81], in that order: 0.3 µM, 0.31 µM and 3.24 nM.
As to `CCCNC(=O)c1ncsc1Nc1cc(NC)c2ncc(C(=O)NC3CC3)n2n1` [Example 80], the IC50 in assay [1] (setting [4]) turned out to be 0.14 µM; in assay [2] (setting [5]), 0.13 µM. In assay [3], the EC50 was 20 nM.
For `CNc1cc(Nc2csnc2C(=O)Nc2ccc(F)cc2)nn2c(C(=O)NC3CC3)cnc12` [Example 66], in that order: 0.4 µM, 0.11 µM and 10 nM.
For `[2H]C([2H])([2H])NC(=O)c1nscc1Nc1cc(NC)c2ncc(C(=O)NC3CCC3)n2n1` [Example 67], in that order: 0.47 µM, 0.23 µM and 40 nM.
Turning to `[2H]C([2H])([2H])NC(=O)c1sccc1Nc1cc(NC)c2ncc(C(=O)NC3CCC3)n2n1` [Example 50], the IC50 in assay [1] (setting [4]) amounted to 0.45 µM; in assay [2] (setting [5]), 1 µM. Also, the EC50 in assay [3] stood at 30 nM.
Regarding `[2H]C([2H])([2H])NC(=O)c1nscc1Nc1cc(NC)c2ncc(C(=O)NCCOC)n2n1` [Example 69], the figures for the IC50 in assay [1] (setting [4]) and in assay [2] (setting [5]) were 0.05 µM and 0.01 µM, respectively. Further, the EC50 in assay [3] was determined as 2.29 nM.
`CNc1cc(Nc2scnc2C(=O)Nc2cccnc2)nn2c(C(=O)NC3CC3)cnc12` [Example 83]: the IC50 is 0.16 µM in assay [1] (setting [4]) and 1.76 µM in assay [2] (setting [5]). Moreover, the EC50 in assay [3] is 10 nM.
For `CNc1cc(Nc2cn(C)nc2C(=O)NC2CC2)nn2c(C(=O)NC3CC3)cnc12` [Example 16], in that order: 0.25 µM, 0.14 µM and 4.49 nM.
In the case of `CNc1cc(Nc2ccoc2C(=O)NC(C)C)nn2c(C(=O)NC3CC3)cnc12` [Example 54], the IC50 in assay [1] (setting [4]) was determined as 0.17 µM; in assay [2] (setting [5]) it was 0.05 µM. Moreover, the EC50 in assay [3] stood at 6.06 nM.
Take `CNc1cc(Nc2cn(C)nc2C(=O)Nc2ccccc2)nn2c(C(=O)N[C@@H]3C[C@@H]3F)cnc12` [Example 15]: the IC50 in assay [1] (setting [4]) was determined as 0.2 µM; in assay [2] (setting [5]), 0.11 µM. Also, in assay [3], the concentration for a half-maximal effect (EC50) was determined as 9.37 nM.
Take `CNc1cc(Nc2ccsc2C(=O)Nc2ccc(F)cc2)nn2c(C(=O)NC3CC3)cnc12` [Example 45]: the figures for the IC50 in assay [1] (setting [4]) and in assay [2] (setting [5]) were 0.22 µM and 0.13 µM, respectively. Also, in assay [3], the EC50 came out at 20 nM.
Regarding `CCNC(=O)c1nscc1Nc1cc(NC)c2ncc(C(=O)NCc3nccs3)n2n1` [Example 75], the IC50 amounted to 3.31 µM in assay [1] (setting [4]) and 2.29 µM in assay [2] (setting [5]). The EC50 in assay [3] turned out to be 10 nM.
Consider `CNc1cc(Nc2cn(C)nc2C(=O)Nc2ccc3c(c2)OCO3)nn2c(C(=O)NC3CC3)cnc12` [Example 13], for which the IC50 was determined as 0.33 µM in assay [1] (setting [4]) and 0.21 µM in assay [2] (setting [5]). Also, in assay [3], the EC50 was determined as 7.77 nM.
Turning to `CNc1cc(Nc2cn(C)nc2C(=O)Nc2ccccc2)nn2c(C(=O)NC3CC3)cnc12` [Example 2], the IC50 is 0.94 µM in assay [1] (setting [4]) and 0.68 µM in assay [2] (setting [5]). The EC50 in assay [3] amounted to 3 nM.
For the compound `CNC(=O)c1ncsc1Nc1cc(NC)c2ncc(C(=O)NC3CC3)n2n1` [Example 77], the IC50 in assay [1] (Kit225 T cells, 20 ng/mL human recombinant IL-23, 5-6 hours, luciferase, read-out: IL-23 Kit225 Reporter, LE (IC50)) turned out to be 0.57 µM; in assay [2] (Kit225 T cells, 200 U/mL human recombinant IFNα, 5-6 hours, luciferase, read-out: IFNa Kit225 Reporter, LE (IC50)), 0.22 µM. Further, the EC50 in assay [3] (2.5 nM Tyk2 (575-869), 40 nM [3H] probe, 30 minutes at room temperature, read-out: Probe Displacement EC50) turned out to be 20 nM.
For `CNc1cc(Nc2cn(C)nc2C(=O)Nc2cccc(F)c2)nn2c(C(=O)NC3CC3)cnc12` [Example 21], the IC50 in assay [1] (setting [4]) is 0.24 µM; in assay [2] (setting [5]), 0.5 µM. For the same compound, in assay [3], the EC50 was 50 nM.
As to `CNc1cc(Nc2ccoc2C(=O)Nc2cccnc2)nn2c(C(=O)NC3CC3)cnc12` [Example 58], the IC50 worked out at 0.15 µM in assay [1] (setting [4]) and 0.11 µM in assay [2] (setting [5]). Moreover, the EC50 in assay [3] was found to be 3.61 nM.
On to `CNc1cc(Nc2cn(C)nc2C(=O)Nc2cc(C)c(C)nn2)nn2c(C(=O)NC3CC3)cnc12` [Example 7], for which the IC50 in assay [1] (setting [4]) turned out to be 0.32 µM; in assay [2] (setting [5]) it was 0.19 µM. In addition, in assay [3], the EC50 was 20 nM.
Regarding `CCn1cc(Nc2cc(NC)c3ncc(C(=O)NC4CC4)n3n2)c(C(=O)Nc2ccccc2)n1` [Example 31], the results for the IC50 in assay [1] (setting [4]) and in assay [2] (setting [5]) were 0.72 µM and 0.3 µM, respectively. The EC50 in assay [3] was 9.39 nM.
Turning to `CCNC(=O)c1nscc1Nc1cc(NC)c2ncc(C(=O)NC3CCC3)n2n1` [Example 71], the IC50 amounted to 0.2 µM in assay [1] (setting [4]) and 0.21 µM in assay [2] (setting [5]). Further, the EC50 in assay [3] was determined as 8.09 nM.
For `CNc1cc(Nc2cc(C(=O)Nc3ccccc3)n(C)n2)nn2c(C(=O)NC3CC3)cnc12` [Example 42], in that order: 12.5 µM, 12.5 µM and 360 nM.
For `[2H]C([2H])([2H])NC(=O)c1sccc1Nc1cc(NC)c2ncc(C(=O)NCCOC)n2n1` [Example 48], in that order: 0.15 µM, 0.08 µM and 20 nM.
As for `CNc1cc(Nc2cnn(C)c2C(=O)Nc2ccccc2)nn2c(C(=O)NC3CC3)cnc12` [Example 38], the IC50 was 4.46 µM in assay [1] (setting [4]) and 12.5 µM in assay [2] (setting [5]). Also, the EC50 in assay [3] turned out to be 50 nM.
As to `CNc1cc(Nc2ccsc2C(=O)Nc2cccnc2)nn2c(C(=O)NC3CC3)cnc12` [Example 46], the IC50 in assay [1] (setting [4]) amounted to 0.1 µM; in assay [2] (setting [5]), 0.12 µM. Besides, the EC50 in assay [3] stood at 8 nM.
For `CNc1cc(Nc2ccoc2C(=O)Nc2ccc(OC)nc2)nn2c(C(=O)NC3CC3)cnc12` [Example 55], in that order: 0.06 µM, 0.03 µM and 2.87 nM.
In the case of `CNc1cc(Nc2cn(C)nc2C(=O)Nc2cncnc2)nn2c(C(=O)NC3CC3)cnc12` [Example 8], the IC50 came out at 0.26 µM in assay [1] (setting [4]) and 0.22 µM in assay [2] (setting [5]). Moreover, the concentration for a half-maximal effect (EC50) in assay [3] worked out at 7.67 nM.
For `CNc1cc(Nc2cn(C)nc2C(=O)NCC(C)C)nn2c(C(=O)NC3CC3)cnc12` [Example 17], the IC50 in assay [1] (setting [4]) stood at 0.16 µM; in assay [2] (setting [5]) it was 0.49 µM. Moreover, the EC50 in assay [3] was 40 nM.
With `CCn1cc(Nc2cc(NC)c3ncc(C(=O)NC4CC4)n3n2)c(C(=O)NC)n1` [Example 28, N-cyclopropyl-6-((1-ethyl-3-(methylcarbamoyl)-1H-pyrazol-4-yl)amino)-8-(methylamino)imidazo[1,2-b]pyridazine-3-carboxamide], the IC50 in assay [1] (setting [4]) amounted to 0.21 µM; in assay [2] (setting [5]) it was 0.4 µM. In assay [3], the EC50 came out at 20 nM.
As to `CNc1cc(Nc2sc(C)nc2C(=O)NC(C)C)nn2c(C(=O)NC3CC3)cnc12` [Example 85], the figures for the IC50 in assay [1] (setting [4]) and in assay [2] (setting [5]) were 0.256 µM and 0.224 µM, respectively. Further, the EC50 in assay [3] came to 26.7 nM.
